From patent US4317912A, “Tetracyclic indole derivatives” (Farmitalia Carlo Erba S.p.A., priority 1979, dated 1982) come the findings set out here.

Each structure is given as a SMILES string.

What is called LD50 is the dose expected to kill half of the subjects tested. High values mean lower toxicity, low ones greater toxicity.

Data set [1] relates to spontaneously hypertensive male rats, strain MHS. Nature of the data set: Anti-hypertensive activity in spontaneously hypertensive rats (MHS), blood pressure and heart rate measured at the tail. Type of data set: in vivo, rat (spontaneously hypertensive. The following applies: MHS rats; for Change in BP, 1st day, 1 hr after dose / Change in HR, 1st day, 1 hr after dose / Change in BP, 1st day, 5 hrs after dose / Change in HR, 1st day, 5 hrs after dose / Change in BP, 4th day, 1 hr after dose / Change in HR, 4th day, 1 hr after dose / Change in BP, 4th day, 5 hrs after dose / Change in HR, 4th day, 5 hrs after dose: mean of 4 animals. Here is the method:
Four spontaneously hypertensive male rats, strains MHS, weighing 250-300 g for each group were used.
The animals were treated for four consecutive days. Drugs were administered by gastric gavage, suspended in 5% arabic gum (0.2 ml/100 g body weight). Blood pressure (BP) and heart rate (HR) were measured at the tail by BP Recorder W+W. Blood pressure and heart rate were measured on the 1st and 4th day of treatment 1 hour before and 1 and 5 hours after drug administration.
*Data of LD50 from the literature. In Tables 1 and 2 are reported
the results of the study of the activity of compounds 355/1165 and
355/1166 upon the BP and HR (measured indirectly by means of a tail cuff)
of spontaneous hypertensive rats, MHS strain (4 rats each group). The
compounds were given orally, once a day for 4 consecutive days.

Data set [2] is described as follows: Acute (orientative) oral toxicity in mice. To be noted: mouse, in vivo. The text has this:
The male mice for each group were orally treated with drugs at different dose levels for the determination of orientative toxicity.

The subject of data set [3] is spontaneously hypertensive rats (Okamoto strain). Nature of the data set: Anti-hypertensive activity in conscious spontaneously hypertensive rats (Okamoto), carotid artery catheter. The class given is in vivo, rat (spontaneously hypertensive. The following applies: 3 mg/kg os, mean of 6 animals. Here is the method: Blood pressure recordings were made in conscious hypertensive unrestrained rats weighing approximately 300 g, via a catheter cronically inserted into the left common carotid artery. Implantation of arterial cannula was made under sodium pentobarbital anesthesia (50 mg/kg i.p.). A 1 cm long incision was made through the previously shaved ventral surface of the neck and the tissues overlying the trachea parted by blunt dissection to reveal the carotid artery. The polyethylene catheter used was made with PE 50 tubing, previously filled with saline containing 250 I.U./ml heparin. The tip of the cannula was pushed at least 2 cm inside the vessel toward the heart. The cannula was then firmly tied and passed beneath the skin to emerge from a small incision in the back of the neck. During the postoperative period and before the start of each recording session, the cannula was flushed through daily with saline containing heparin (250 U.I./ml). The experiments were performed two days after surgery. Drugs were administered by gastric gavage.

Take `CN1CC(CCC#N)C2Cc3cccc4[nH]cc(c34)CC21` (stereo not drawn) [355/1225, Trans-5(10→9)abeo-6-methyl-ergoline-8β-propionitrile]: in data set [1] (1 mg/kg os), the “Change in BP, 1st day, 1 hr after dose” value is recorded as -28 mmHg; the “Change in HR, 1st day, 1 hr after dose” value was “+5 b/min”; the “Change in BP, 1st day, 5 hrs after dose” value is on record as -17 mmHg; the “Change in HR, 1st day, 5 hrs after dose” value is -22 b/min. Moreover, in data set [1] (1 mg/kg os), the “Change in BP, 4th day, 1 hr after dose” value is -34 mmHg; the “Change in HR, 4th day, 1 hr after dose” value is on record as -40 b/min; the “Change in BP, 4th day, 5 hrs after dose” value was -21 mmHg; the “Change in HR, 4th day, 5 hrs after dose” value is on record as -43 b/min. In addition, in data set [1] (5 mg/kg os), the “Change in BP, 1st day, 1 hr after dose” value is -67 mmHg; the “Change in HR, 1st day, 1 hr after dose” value is -32 b/min; the “Change in BP, 1st day, 5 hrs after dose” value is on record as -42 mmHg; the “Change in HR, 1st day, 5 hrs after dose” value is -4 b/min. Also, in data set [1] (5 mg/kg os), the “Change in BP, 4th day, 1 hr after dose” value is -34 mmHg; the “Change in HR, 4th day, 1 hr after dose” value is -55 b/min; the “Change in BP, 4th day, 5 hrs after dose” value is on record as -21 mmHg; the “Change in HR, 4th day, 5 hrs after dose” value is on record as -59 b/min. Further, the “Activity compared with Hydralazine and α-methyl-DOPA” value in data set [1] (5 mg/kg per os, 1st and 4th day, vs Hydralazine (3 mg/kg per os) and α-methyl-DOPA) is “greater activity”. Further, the “Time of peak effect on blood pressure” value in data set [1] (1 and 5 mg/kg orally) was “one hour after dosing”. The “Effect on blood pressure” value in data set [1] (1 and 5 mg/kg orally, 1st and 4th day) is “reduces blood pressure in dose-dependent manner on both the 1st and 4th day of treatment”. The “Tolerance after repeated administration” value in data set [1] (four days, 355/1165 2 mg/kg, 355/1226 3 mg/kg, 355/1225 and 355/1229 5 mg/kg per os) was “No tolerance occurs”. In data set [2], this compound gave an LD50 at 168 h of 600 mg/kg.

With `NNc1nncc2ccccc12` [Hydralazine, reference compound], in data set [1] (1 mg/kg os), the “Change in BP, 1st day, 1 hr after dose” value came to 0 mmHg; the “Change in HR, 1st day, 1 hr after dose” value is reported as “+20 b/min”; the “Change in BP, 1st day, 5 hrs after dose” value is listed as -10 mmHg; the “Change in HR, 1st day, 5 hrs after dose” value is “+25 b/min”. Besides, in data set [1] (1 mg/kg os), the “Change in BP, 4th day, 1 hr after dose” value is listed as “+7 mmHg”; the “Change in HR, 4th day, 1 hr after dose” value is reported as “+30 b/min”; the “Change in BP, 4th day, 5 hrs after dose” value is listed as “+2 mmHg”; the “Change in HR, 4th day, 5 hrs after dose” value is “+15 b/min”. In data set [1] (3 mg/kg os), the “Change in BP, 1st day, 1 hr after dose” value is recorded as -43 mmHg; the “Change in HR, 1st day, 1 hr after dose” value is listed as “+31 b/min”; the “Change in BP, 1st day, 5 hrs after dose” value is on record as -29 mmHg; the “Change in HR, 1st day, 5 hrs after dose” value is “+34 b/min”. In data set [1] (3 mg/kg os), the “Change in BP, 4th day, 1 hr after dose” value is reported as -15 mmHg; the “Change in HR, 4th day, 1 hr after dose” value is on record as “+18 b/min”; the “Change in BP, 4th day, 5 hrs after dose” value is “+5 mmHg”; the “Change in HR, 4th day, 5 hrs after dose” value is on record as “+13 b/min”. The “Effect on heart rate” value in data set [1] (oral, all doses treated (Table 2)) is recorded as “no effect on heart rate”. Besides, in data set [3] (30'), the “Change in blood pressure after treatment, 30'” value is listed as -25 mmHg and the “Change in heart rate after treatment, 30'” value was “+50 b/min”. Besides, in data set [3] (60'), the “Change in blood pressure after treatment, 60'” value is listed as -33 mmHg and the “Change in heart rate after treatment, 60'” value was “+21 b/min”. In data set [3] (120'), the “Change in blood pressure after treatment, 120'” value is -40 mmHg and the “Change in heart rate after treatment, 120'” value is recorded as “+52 b/min”. In data set [3] (240'), the “Change in blood pressure after treatment, 240'” value is on record as -29 mmHg and the “Change in heart rate after treatment, 240'” value is listed as “+3 b/min”. In data set [3] (360'), the “Change in blood pressure after treatment, 360'” value is on record as -7 mmHg and the “Change in heart rate after treatment, 360'” value was “+3 b/min”.
